Data on ten compounds can be found in patent US4822800A (Ortho Pharmaceutical Corporation, priority 1986, dated 1989).

The test system of assay [1] is adult mongrel dogs. Put plainly: acute in vivo cardiotonic activity in anesthetized dogs. Details: species or system dog (adult mongrel). As to conditions: Canis lupus familiaris, cardiotonic, relative to controls; for change in vivo at 1.87 mg/kg: dose 1.87 mg/kg intravenous; for change in vivo at 1.875 mg/kg: dose 1.875 mg/kg intravenous; for change in vivo at 3.75 mg/kg: dose 3.75 mg/kg intravenous; for change in vivo at 0.875 mg/kg: dose 0.875 mg/kg intravenous; for change in vivo at 8.75 mg/kg: dose 8.75 mg/kg intravenous. The procedure: The acute in vivo cardiotonic activity of compounds prepared according to the present invention was determined according to a modification of the procedure described by Alousi et al., Circ. Res., 45, 666 (1979).
In particular, adult mongrel dogs were anesthetized with sodium pentobarbital and were artificially respired. Arterial pressure was monitored via a femoral artery, and the pulse pressure was used to trigger a cardiotachometer for heart rate. Left ventricular pressure was determined with a Millar catheter, and dP/dt (the change in ventricular pressure with time) was derived. Cardiac output was determined by measuring ascending aortic blood flow with an electromagnetic flow probe, and myocardial contractile force was measured with a Walton Brodie strain gauge sutured to the right ventricle. Lead II EKG was also recorded.
A standard dose (10 μg/kg/min) of dopamine was administered to assess myocardial responsiveness.
Compounds of the invention were administered by intravenous infusion or bolus […] administration, and the effects on cardiovascular parameters were determined.
Dose related effects of the test compound on blood pressure (BP), heart rate (HR), maximum change in left ventricular pressure with time (dP/dt max),% change in cardiac force (CF) and the increase in mean arterial blood pressure relative to controls (MABP) were compared to pretreatment control values, expressed as a% change and rated for activity.

The test system of assay [2] is adult mongrel dogs. Kind of assay: renal vasodilating activity in anesthetized dogs. The class given is in vivo, dog (adult mongrel). As to conditions: Canis lupus familiaris, renal vasodilator, relative to controls; for change in vivo at 1.2 mg/kg: dose 1.2 mg/kg intravenous; for change in vivo at 13.9 mg/kg / change in vivo at up to 13.9 mg/kg: dose 13.9 mg/kg intravenous. The procedure:
Goldberg et al, J. Pharmacol. Exp. Ther., 163, 188 (1968), performed an investigation of the structural requirements for dopamine-like renal vasodilation of phenethylamines and apomorphine. The following procedure is a variation of the assay described in that report.
Adult mongrel dogs were anesthetized and surgically prepared for electromagnetic measurement of renal artery blood flow. A carotid artery was cannulated for measuring arterial blood pressure, and drugs were administered intravenously. Heart rate was monitored with a cardiotachometer. Renal vascular resistance was calculated as the ratio of mean arterial blood pressure/renal artery blood flow. Dopamine was infused intravenously at 3 μg/kg/min for ten minutes (at an infusion rate of about 1 ml/min) to determine responsiveness of each dog to renal dopamine receptor stimulation. Cumulative dose-response data were obtained by infusing a compound of this invention at progressively increasing (usually three-fold) infusion rates, each dose being infused for five minutes. The maximum % increase from pre-drug control in renal artery blood flow (or a decrease in renal vascular resistance) was determined for each infusion dose.
RBF values are percent change in renal blood flow. RVR values are percent change in renal vascular resistance. MABP and HR are percent changes in mean arterial blood pressure and heart rate, respectively, relative to controls.

Setting [3] is: read-out: MABP (mean arterial blood pressure).
The mark [4] stands for this setting: read-out: dP/dt (maximum change left ventricular pressure with time).
[5] abbreviates: read-out: RBF (renal blood flow).
Setting [6] is: read-out: RVR (renal vascular resistance).

Where a name gives a salt, the structure may show the parent alone. Read-outs that look alike come from different tables or passages of the source.

For `COc1cc2c(C)nc(O)c(C(=O)NN)c2cc1OC` [AV], the change in vivo at 1.87 mg/kg in assay [1] (read-out: CF (cardiac force)) is 89%; in assay [1] (read-out: HR (heart rate)), 14%; in assay [1] (setting [3]), -2%; in assay [1] (setting [4]), 34%. The change in vivo at 1.2 mg/kg in assay [2] (read-out: HR (heart rate)) is 1%; in assay [2] (setting [3]), 5%; in assay [2] (setting [5]), 22%; in assay [2] (setting [6]) it was -13%.

`COc1cc2c(C)nc(O)c(CCC(=O)O)c2cc1OC` [Compound E, 4-β-Carboxyethyl-3-hydroxy-6,7-dimethoxy-1-methylisoquinoline]: the change in vivo at 1.875 mg/kg in assay [1] (read-out: CF (cardiac force)) was 75%; in assay [1] (read-out: HR (heart rate)) it was 5%; in assay [1] (setting [3]) it was -3%; in assay [1] (setting [4]), 42%. The change in vivo at 13.9 mg/kg is 11% in assay [2] (read-out: HR (heart rate)), -7% in assay [2] (setting [3]) and 7% in assay [2] (setting [5]). Further, the change in vivo at up to 13.9 mg/kg in assay [2] (setting [6]) is -13%.

Regarding `Cc1nc(O)c(CCC(=O)O)c2cc(O)c(O)cc12` [Compound G, 4-β-Carboxyethyl-3,6,7-trihydroxy-1-methyl-3-isoquinoline Hydrobromide], the change in vivo at 3.75 mg/kg is 82% in assay [1] (read-out: CF (cardiac force)), 13% in assay [1] (read-out: HR (heart rate)), -10% in assay [1] (setting [3]) and 32% in assay [1] (setting [4]). For the same compound, the change in vivo at 13.9 mg/kg was -3% in assay [2] (read-out: HR (heart rate)), -5% in assay [2] (setting [3]) and 11% in assay [2] (setting [5]). Further, the change in vivo at up to 13.9 mg/kg in assay [2] (setting [6]) is -14%.

Regarding `COC(=O)CCc1c(O)nc(C)c2c(OC)c(OC)c(OC)cc12` [Compound J, 4-carbomethoxyethyl-3-hydroxy-6,7,8-trimethoxy-1-methylisoquinoline], the change in vivo at 0.875 mg/kg in assay [1] (read-out: CF (cardiac force)) was 22%; in assay [1] (read-out: HR (heart rate)) it was 8%; in assay [1] (setting [3]), -4%; in assay [1] (setting [4]), 20%. Further, the results for the change in vivo at 13.9 mg/kg in assay [2] (setting [3]) and in assay [2] (setting [5]) were -1% and 18%, respectively. In addition, the change in vivo at up to 13.9 mg/kg in assay [2] (setting [6]) was -23%.

In the case of `COC(=O)CCc1c(O)ncc2cc(OC)c(OC)cc12` [Compound Q, 4-(β-Carbomethoxyethyl)-3-hydroxy-6,7-dimethoxyisoquinoline], the change in vivo at 0.875 mg/kg is 53% in assay [1] (read-out: CF (cardiac force)), 7% in assay [1] (read-out: HR (heart rate)), -4% in assay [1] (setting [3]) and 24% in assay [1] (setting [4]). The change in vivo at 13.9 mg/kg in assay [2] (setting [5]) amounted to 42%. Further, the change in vivo at up to 13.9 mg/kg in assay [2] (setting [6]) was -23%.

On to `COc1ccc2cc(O)ncc2c1OC` [D], for which the change in vivo at 8.75 mg/kg in assay [1] (read-out: CF (cardiac force)) was 60%; in assay [1] (read-out: HR (heart rate)), 13%; in assay [1] (setting [3]) it was -7%; in assay [1] (setting [4]), 34%. Moreover, the figures for the change in vivo at 13.9 mg/kg in assay [2] (read-out: HR (heart rate)), in assay [2] (setting [3]) and in assay [2] (setting [5]) were 3%, -11% and 21%, respectively. In addition, in assay [2] (setting [6]), the change in vivo at up to 13.9 mg/kg is -27%.

`COc1cc2cc(O)nc(C)c2c(OC)c1OC` [H]: the change in vivo at 0.875 mg/kg is 76% in assay [1] (read-out: CF (cardiac force)), 13% in assay [1] (read-out: HR (heart rate)), -2% in assay [1] (setting [3]) and 45% in assay [1] (setting [4]). Further, the change in vivo at 13.9 mg/kg in assay [2] (read-out: HR (heart rate)) was 20%; in assay [2] (setting [3]) it was -12%; in assay [2] (setting [5]), 41%. For the same compound, the change in vivo at up to 13.9 mg/kg in assay [2] (setting [6]) was -38%.

Take `CCc1nc(O)c(CCC(=O)OC)c2cc(OC)c(OC)cc12` [K]: the change in vivo at 0.875 mg/kg in assay [1] (read-out: CF (cardiac force)) is 47%; in assay [1] (read-out: HR (heart rate)), 10%; in assay [1] (setting [3]) it was -3%; in assay [1] (setting [4]), 33%. Besides, in assay [2] (setting [5]), the change in vivo at 13.9 mg/kg is 28%. For the same compound, the change in vivo at up to 13.9 mg/kg in assay [2] (setting [6]) was -28%.

For `COC(=O)C(C)Cc1c(O)nc(C)c2cc(OC)c(OC)cc12` (centres unmarked) [O], the change in vivo at 1.875 mg/kg in assay [1] (read-out: CF (cardiac force)) was 100%; in assay [1] (read-out: HR (heart rate)) it was 21%; in assay [1] (setting [3]), 0%; in assay [1] (setting [4]) it was 67%. Moreover, the change in vivo at 13.9 mg/kg in assay [2] (setting [5]) was determined as 15%. The change in vivo at up to 13.9 mg/kg in assay [2] (setting [6]) was -18%.

On to `COC(=O)Cc1c(O)nc(C)c2cc(OC)c(OC)cc12` [W], for which the change in vivo at 0.875 mg/kg in assay [1] (read-out: CF (cardiac force)) was 42%; in assay [1] (read-out: HR (heart rate)) it was 6%; in assay [1] (setting [3]), -1%; in assay [1] (setting [4]) it was 28%. Further, in assay [2] (setting [5]), the change in vivo at 13.9 mg/kg was found to be 64%. For the same compound, the change in vivo at up to 13.9 mg/kg in assay [2] (setting [6]) was -62%.
